This passage reports IC50 results from patent publication US20160046618A1, “Cyclopropyl Fused Thiazin-2-Amine Compounds as Beta-Secretase Inhibitors and Methods of Use” (AMGEN INC., priority 2014, published 2016).

Like-named read-outs stand apart in the source and are kept apart here. Where only a bound is given, the exact number is not on record here.

In one assay the target is human recombinant BACE1 (Homo sapiens (Human), UniProt P56817). Nature of the assay: In vitro enzymatic BACE1 FRET assay. As to conditions: read-out: IC50 IP (μM) BACE1 enzyme. Type of assay: biochemical. In outline:
(§1)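 Reactions were initiated by adding 50 nM of a peptide carrying fluorophore and quencher on opposite sides of the cleavage site and ran for one hour. Tris buffer then brought the pH to neutrality, ending the reaction, and fluorescence was measured (488 nm excitation, 590 nm emission).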

For assay [1], the system named is Aβ40 in conditioned medium of cells stably expressing Amyloid Precursor Protein (APP). The assay is described as follows: In vitro BACE-1 cell-based assay (Aβ40 sandwich ELISA). The following applies: read-out: IC50 IP (μM) BACE1 cell. In outline: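 Aβ40 in supernatants measured by time-resolved fluorescence sandwich ELISA, with pAb40 as capture and biotin-6E10 as detector antibody, each incubated at 4 °C.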
A general note: An ELISA detects its analyte on a solid surface through an enzyme-linked reagent.

The next assay has as its target human recombinant BACE2 (Homo sapiens (Human), UniProt Q9Y5Z0). Nature of the assay: In vitro enzymatic BACE2 FRET assay. Type of assay: biochemical. As to conditions: read-out: IC50 IP (μM) BACE2 enzyme. In outline: as §1
The target of the next assay is Recombinant Cat D (Homo sapiens (Human), UniProt P07339). The assay is described as follows: In vitro enzymatic Cathepsin D (Cat D) FRET assay. As to conditions: read-out: IC50 IP (μM) CatD. The format is biochemical. In outline: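 CHO-expressed enzyme; buffer 0.05 M citrate pH 3.5, 5 mM CHAPS, 10% DMSO final. Start with FRET substrate 20 nM, 1 h incubation, Tris stop (pH to neutral), fluorescence ex 500 nm/em 580 nm.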
Sequence of Recombinant Cat D (P07339 65-412): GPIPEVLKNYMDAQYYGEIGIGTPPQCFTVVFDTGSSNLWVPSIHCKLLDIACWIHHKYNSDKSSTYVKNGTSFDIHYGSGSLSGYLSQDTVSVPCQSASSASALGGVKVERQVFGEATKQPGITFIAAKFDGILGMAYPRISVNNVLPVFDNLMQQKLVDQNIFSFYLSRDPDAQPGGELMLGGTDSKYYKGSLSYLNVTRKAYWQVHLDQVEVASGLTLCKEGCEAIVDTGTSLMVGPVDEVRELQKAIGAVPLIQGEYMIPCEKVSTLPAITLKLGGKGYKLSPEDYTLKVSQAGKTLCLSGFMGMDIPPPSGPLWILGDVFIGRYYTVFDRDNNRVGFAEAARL

Sequence of human recombinant BACE2 (Q9Y5Z0 63-518): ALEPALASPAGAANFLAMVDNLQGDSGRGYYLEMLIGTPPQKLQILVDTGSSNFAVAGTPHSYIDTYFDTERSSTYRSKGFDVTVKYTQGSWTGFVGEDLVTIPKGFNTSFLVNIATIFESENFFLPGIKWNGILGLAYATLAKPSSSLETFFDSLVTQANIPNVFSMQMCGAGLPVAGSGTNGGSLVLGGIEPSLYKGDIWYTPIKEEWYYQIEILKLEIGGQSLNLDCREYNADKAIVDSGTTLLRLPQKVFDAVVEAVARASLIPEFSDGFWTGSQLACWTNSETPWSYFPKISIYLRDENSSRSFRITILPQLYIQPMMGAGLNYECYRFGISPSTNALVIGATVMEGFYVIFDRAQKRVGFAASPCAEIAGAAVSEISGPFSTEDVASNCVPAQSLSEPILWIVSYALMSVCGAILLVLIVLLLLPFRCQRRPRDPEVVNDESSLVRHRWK
Sequence of human recombinant BACE1 (P56817 46-501): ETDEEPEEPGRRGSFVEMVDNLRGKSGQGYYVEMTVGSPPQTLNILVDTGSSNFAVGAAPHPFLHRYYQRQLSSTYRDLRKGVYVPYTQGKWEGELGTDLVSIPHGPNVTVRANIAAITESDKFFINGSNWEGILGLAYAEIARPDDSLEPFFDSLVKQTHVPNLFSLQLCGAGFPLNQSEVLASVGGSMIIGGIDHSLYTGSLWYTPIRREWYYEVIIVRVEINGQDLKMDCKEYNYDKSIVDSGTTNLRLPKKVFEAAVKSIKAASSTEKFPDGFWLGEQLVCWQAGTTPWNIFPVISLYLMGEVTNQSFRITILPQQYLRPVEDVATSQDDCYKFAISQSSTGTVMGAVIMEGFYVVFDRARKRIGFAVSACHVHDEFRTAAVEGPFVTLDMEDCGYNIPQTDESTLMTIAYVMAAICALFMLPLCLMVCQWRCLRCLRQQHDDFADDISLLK

For `C[C@]1(c2cc(NC(=O)c3ccc(Cl)cn3)cc(F)c2F)N=C(N)S[C@@]2(C(=O)N3CCCC3)C[C@H]21` [Example 935, N-(3-((1S,5S,6S)-3-amino-5-methyl-1-(1-pyrrolidinylcarbonyl)-2-thia-4-azabicyclo[4.1.0]hept-3-en-5-yl)-4,5-difluorophenyl)-5-chloro-2-pyridinecarboxamide], the IC50 was 0.000498 µM on human recombinant BACE1, 0.000889 µM in assay [1], below 0.00203 µM at human recombinant BACE2 and 254 µM on Recombinant Cat D.

Take `COC[C@H](C)Oc1cnc(C(=O)Nc2cc(F)c(F)c([C@@]3(C)N=C(N)S[C@@]4(COC)C[C@H]43)c2)cn1` [Example 1024, N-(3-((1S,5S,6S)-3-amino-1-(methoxymethyl)-5-methyl-2-thia-4-azabicyclo[4.1.0]hept-3-en-5-yl)-4,5-difluorophenyl)-5-((1S)-2-methoxy-1-methylethoxy)-2-pyrazinecarboxamide]: the IC50 on human recombinant BACE1 turned out to be 0.00214 µM; in assay [1] it was 0.0222 µM; at human recombinant BACE2, 0.313 µM; on Recombinant Cat D, 884 µM.

In the case of `C#CCOc1cnc(C(=O)Nc2ccc(F)c([C@@]3(C)N=C(N)S[C@@]4([C@H](O)C(F)(F)F)C[C@H]43)c2)cn1` [Example 673, N-(3-((1S,5S,6S)-3-amino-5-methyl-1-((1R)-2,2,2-trifluoro-1-hydroxyethyl)-2-thia-4-azabicyclo[4.1.0]hept-3-en-5-yl)-4-fluorophenyl)-5-(2-propyn-1-yloxy)-2-pyrazinecarboxamide], the IC50 amounted to 0.000389 µM on human recombinant BACE1, 0.000398 µM in assay [1], 0.00602 µM on human recombinant BACE2 and 101 µM at Recombinant Cat D.

Take `C[C@H](O)[C@]12C[C@H]1[C@@](C)(c1cc(Nc3ncnc4cc(C#N)cnc34)cc(F)c1F)N=C(N)S2` [Example 907, 4-((3-((1S,5S,6S)-3-amino-1-(1-hydroxyethyl)-5-methyl-2-thia-4-azabicyclo[4.1.0]hept-3-en-5-yl)-4,5-difluorophenyl)amino)pyrido[3,2-d]pyrimidine-7-carbonitrile]: the IC50 was found to be 0.00747 µM on human recombinant BACE1, 0.00413 µM in assay [1], 0.0102 µM at human recombinant BACE2 and 381 µM at Recombinant Cat D.

In the case of `COC[C@]12C[C@H]1[C@@](C)(c1cc(NC(=O)c3cnc(OCC4CCO4)cn3)cc(F)c1F)N=C(N)S2` (stereo partly drawn) [Example 1029, N-(3-((1S,5S,6S)-3-amino-1-(methoxymethyl)-5-methyl-2-thia-4-azabicyclo[4.1.0]hept-3-en-5-yl)-4,5-difluorophenyl)-5-(oxetan-2-ylmethoxy)pyrazine-2-carboxamide], the IC50 turned out to be 0.00741 µM on human recombinant BACE1, 0.0541 µM in assay [1], 0.459 µM at human recombinant BACE2 and 1140 µM on Recombinant Cat D.

Turning to `C#CCOc1cnc(C(=O)Nc2cc(F)c(F)c([C@@]3(C)N=C(N)S[C@@]4(C(F)F)C[C@@H]34)c2)c(C)n1` [Example 861, N-(3-((1S,5S,6S)-3-amino-1-(difluoromethyl)-5-methyl-2-thia-4-azabicyclo[4.1.0]hept-3-en-5-yl)-4,5-difluorophenyl)-3-methyl-5-(2-propyn-1-yloxy)-2-pyrazinecarboxamide], the IC50 at human recombinant BACE1 amounted to 0.000889 µM; in assay [1], 0.00754 µM; on human recombinant BACE2 it was 0.0176 µM; at Recombinant Cat D, 146 µM.

As for `C[C@]1(c2cc(NC(=O)c3ccc(Cl)cn3)cnc2F)N=C(N)S[C@@]2(CF)C[C@H]21` [Example 98, N-(5-((1S,5S,6S)-3-amino-1-(fluoromethyl)-5-methyl-2-thia-4-azabicyclo[4.1.0]hept-3-en-5-yl)-6-fluoropyridin-3-yl)-5-chloropicolinamide], the IC50 on human recombinant BACE1 (BACE1 FRET enzyme assay) stood at 0.00665 µM; in assay [1] (BACE1 cell-based assay), 0.0056 µM; on human recombinant BACE2 (BACE2 FRET enzyme assay) it was 0.0032 µM; on Recombinant Cat D (Cathepsin D FRET enzyme assay), 3140 µM.

Turning to `C[C@]1(c2cc(Nc3nccc4nc(OCc5ncco5)cnc34)cnc2F)N=C(N)S[C@@]2(CF)C[C@H]21` [Example 602, N-(5-((1S,5S,6S)-3-amino-1-(fluoromethyl)-5-methyl-2-thia-4-azabicyclo[4.1.0]hept-3-en-5-yl)-6-fluoro-3-pyridinyl)-2-(1,3-oxazol-2-ylmethoxy)pyrido[3,4-b]pyrazin-5-amine], the IC50 at human recombinant BACE1 came out at 0.000871 µM; in assay [1], 0.00204 µM; at human recombinant BACE2 it was 0.0371 µM; at Recombinant Cat D it was 605 µM.

Take `C#CCOc1cnc2c(Nc3cnc(F)c([C@@]4(C)N=C(N)S[C@]5(CO)[C@H]4C5(F)F)c3)nccc2n1` [Example 661, ((1S,5S,6R)-3-amino-7,7-difluoro-5-(2-fluoro-5-((2-(2-propyn-1-yloxy)pyrido[3,4-b]pyrazin-5-yl)amino)-3-pyridinyl)-5-methyl-2-thia-4-azabicyclo[4.1.0]hept-3-en-1-yl)methanol]: the IC50 is 0.000765 µM at human recombinant BACE1, 0.00244 µM in assay [1], 0.00392 µM at human recombinant BACE2 and 795 µM at Recombinant Cat D.

On to `C=C[C@@H](C)Oc1cnc(C(=O)Nc2ccc(F)c([C@@]3(C)N=C(N)S[C@@]4(COC)C[C@H]43)c2)cn1` (mixture of isomers) [Example 1051, N-(3-((1S,5S,6S)-3-amino-1-(methoxymethyl)-5-methyl-2-thia-4-azabicyclo[4.1.0]hept-3-en-5-yl)-4-fluorophenyl)-5-(((1R)-1-methyl-2-propen-1-yl)oxy)-2-pyrazinecarboxamide, N-(3-((1S,5S,6S)-3-amino-1-(methoxymethyl)-5-methyl-2-thia-4-azabicyclo[4.1.0]hept-3-en-5-yl)-4-fluorophenyl)-5-(((1S)-1-methyl-2-propen-1-yl)oxy)-2-pyrazinecarboxamide], for which the IC50 on human recombinant BACE1 was 0.033 µM; in assay [1], 0.035 µM; on human recombinant BACE2, 0.345 µM; on Recombinant Cat D, above 400 µM.

Consider `C#CCOc1cnc2c(Nc3cc(C(=O)OC)c(F)c([C@@]4(C)N=C(N)S[C@@]5(CO)C[C@H]54)c3)nccc2n1` [Example 857, methyl 3-((1S,5S,6S)-3-amino-1-(hydroxymethyl)-5-methyl-2-thia-4-azabicyclo[4.1.0]hept-3-en-5-yl)-2-fluoro-5-((2-(prop-2-yn-1-yloxy)pyrido[3,4-b]pyrazin-5-yl)amino)benzoate], for which the IC50 was 0.0678 µM on human recombinant BACE1, 0.0156 µM in assay [1], 0.346 µM at human recombinant BACE2 and 2520 µM on Recombinant Cat D.

Consider `C[C@]1(c2cc(Nc3nccc4nc(OCc5ncccc5F)cnc34)cc(F)c2F)N=C(N)S[C@@]2(C(F)F)C[C@@H]12` [Example 873, N-(3-((1S,5S,6S)-3-amino-1-(difluoromethyl)-5-methyl-2-thia-4-azabicyclo[4.1.0]hept-3-en-5-yl)-4,5-difluorophenyl)-2-((3-fluoro-2-pyridinyl)methoxy)pyrido[3,4-b]pyrazin-5-amine], for which the IC50 was found to be 0.00175 µM on human recombinant BACE1, 0.287 µM in assay [1], 0.0358 µM on human recombinant BACE2 and 95.1 µM at Recombinant Cat D.

Turning to `NC1=N[C@](CF)(c2cc(NC(=O)c3ccc(Cl)cn3)cc(F)c2F)[C@@H]2C[C@]2(CO)S1` [Example 31, N-(3-((1S,5S,6S)-3-amino-5-(fluoromethyl)-1-(hydroxymethyl)-2-thia-4-azabicyclo[4.1.0]hept-3-en-5-yl)-4,5-difluorophenyl)-5-chloropicolinamide], the IC50 amounted to 0.00206 µM on human recombinant BACE1 (BACE1 FRET enzyme assay), 0.00226 µM in assay [1] (BACE1 cell-based assay), 0.00109 µM at human recombinant BACE2 (BACE2 FRET enzyme assay) and 1400 µM on Recombinant Cat D (Cathepsin D FRET enzyme assay).

As for `COc1cnc(C(=O)Nc2ccc(F)c([C@@]3(CF)N=C(N)S[C@@]4(CO)C[C@H]43)c2)c(C)n1` [Example 75, N-(3-((1S,5S,6S)-3-amino-5-(fluoromethyl)-1-(hydroxymethyl)-2-thia-4-azabicyclo[4.1.0]hept-3-en-5-yl)-4-fluorophenyl)-5-methoxy-3-methyl-2-pyrazinecarboxamide], the half-inhibitory concentration (IC50) at human recombinant BACE1 (BACE1 FRET enzyme assay) was 0.012 µM; in assay [1] (BACE1 cell-based assay), 0.0136 µM; on human recombinant BACE2 (BACE2 FRET enzyme assay), 0.0295 µM; at Recombinant Cat D (Cathepsin D FRET enzyme assay), above 400 µM.

For the compound `COC[C@H](C)Oc1cnc(C(=O)Nc2cc(F)c(F)c([C@@]3(C)N=C(N)S[C@@]4(C#N)C[C@H]43)c2)cn1` [Example 1010, N-(3-((1S,5S,6S)-3-amino-1-cyano-5-methyl-2-thia-4-azabicyclo[4.1.0]hept-3-en-5-yl)-4,5-difluorophenyl)-5-(((S)-1-methoxypropan-2-yl)oxy)pyrazine-2-carboxamide], the IC50 at human recombinant BACE1 is 0.0032 µM; in assay [1] it was 0.0309 µM; at human recombinant BACE2 it was 0.0669 µM; at Recombinant Cat D, above 400 µM.

For the compound `COC[C@]12C[C@H]1[C@@](C)(c1cc(Nc3nccc4cc(OCC#N)cnc34)cc(F)c1F)N=C(N)S2` [Example 729, ((8-((3-((1S,5S,6S)-3-amino-1-(methoxymethyl)-5-methyl-2-thia-4-azabicyclo[4.1.0]hept-3-en-5-yl)-4,5-difluorophenyl)amino)-1,7-naphthyridin-3-yl)oxy)acetonitrile], the IC50 on human recombinant BACE1 amounted to 0.0282 µM; in assay [1], 0.0457 µM; on human recombinant BACE2 it was 0.385 µM; at Recombinant Cat D it was 856 µM.

As usually defined, the IC50 is the midpoint of a concentration-inhibition curve.
